Assay results taken from patent US6583175B2, “Alkylxanthates and use of alkylxanthates in the integrated pest management” (Council of Scientific & Industrial Research, priority 2001, dated 2003).
Converted amounts (≈) assume the structure as drawn. Like-named read-outs stand apart in the source and are kept apart here.

Legend:
[1] = system: Aedes aegypti; assay type: in vivo; settings: IV instar larvae, 24 hours
[2] = system: Spodoptera litura; assay: Antifeedant activity against late third instar of Spodoptera litura (leaf disk, oral feeding); assay type: in vivo; settings: for Concentration required for 50% leaf protection EC50 ± S.E.: late third instar
[3] = system: Helicoverpa armigera; assay type: in vivo; settings: topical
[4] = system: Spodoptera litura; assay type: in vivo; settings: topical
[5] = system: Brine shrimp, Artemia salina; settings: in vivo

CCCCOC(=S)SCSC(=S)OCCCC [Methylene bis (n-butylxanthate), Methylene Bis(n-butylxanthate)]
LC50 ± S.E. [1]: 5.33 ± 0.97 µg/mL (≈ 17.1 µM) | A.I. (Anti-feedent Index) ([2]; 10 μg/sq. cm.): 5.50 | Percent leaf consumption 12 hr ([2]; 10 μg/sq. cm.): 48.55% | Percent leaf consumption 24 hr ([2]; 10 μg/sq. cm.): 85.1% | A.I. (Anti-feedent Index) ([2]; 15 μg/sq. cm.): 22.27 | Percent leaf consumption 12 hr ([2]; 15 μg/sq. cm.): 35.2% | Percent leaf consumption 24 hr ([2]; 15 μg/sq. cm.): 60.4% | A.I. (Anti-feedent Index) ([2]; 20 μg/sq. cm.): 35.14 | Percent leaf consumption 12 hr ([2]; 20 μg/sq. cm.): 22.5% | Percent leaf consumption 24 hr ([2]; 20 μg/sq. cm.): 45.6% | A.I. (Anti-feedent Index) ([2]; 25 μg/sq. cm.): 64.22 | Percent leaf consumption 12 hr ([2]; 25 μg/sq. cm.): 3.5% | Percent leaf consumption 24 hr ([2]; 25 μg/sq. cm.): 20.7% | A.I. (Anti-feedent Index) ([2]; 30 μg/sq. cm.): 85.37 | Percent leaf consumption 12 hr ([2]; 30 μg/sq. cm.): 0% | Percent leaf consumption 24 hr ([2]; 30 μg/sq. cm.): 7.5% | Concentration required for 50% leaf protection EC50 ± S.E. [2]: 17.11 ± 1.36 μg/cm^2 | Adult emergence: Abnormal adults ([3]; 20 μg/Insect): 41 | Adult emergence: Intermediates ([3]; 20 μg/Insect): 17 | Adult emergence: Non emergence ([3]; 20 μg/Insect): 3 | Adult emergence: Normal adults ([3]; 20 μg/Insect): 27 | Larval mortality (%) ([3]; 20 μg/Insect): 7% | Pupal Formation: Abnormal pupa ([3]; 20 μg/Insect): 36 | Pupal Formation: Normal pupa ([3]; 20 μg/Insect): 52 | Pupal Formation: Pupal Mortality ([3]; 20 μg/Insect): 5 | Adult emergence: Abnormal adults ([3]; 35 μg/Insect): 11 | Adult emergence: Intermediates ([3]; 35 μg/Insect): 18 | Adult emergence: Non emergence ([3]; 35 μg/Insect): 9 | Adult emergence: Normal adults ([3]; 35 μg/Insect): 17 | Larval mortality (%) ([3]; 35 μg/Insect): 12% | Pupal Formation: Abnormal pupa ([3]; 35 μg/Insect): 28 | Pupal Formation: Normal pupa ([3]; 35 μg/Insect): 27 | Pupal Formation: Pupal Mortality ([3]; 35 μg/Insect): 33 | Adult emergence: Abnormal adults ([3]; 50 μg/Insect): 9 | Adult emergence: Intermediates ([3]; 50 μg/Insect): 6 | Adult emergence: Non emergence ([3]; 50 μg/Insect): 21 | Adult emergence: Normal adults ([3]; 50 μg/Insect): 8 | Larval mortality (%) ([3]; 50 μg/Insect): 28% | Pupal Formation: Abnormal pupa ([3]; 50 μg/Insect): 32 | Pupal Formation: Normal pupa ([3]; 50 μg/Insect): 12 | Pupal Formation: Pupal Mortality ([3]; 50 μg/Insect): 28 | Adult emergence: Abnormal adults ([3]; 75 μg/Insect): 1 | Adult emergence: Intermediates ([3]; 75 μg/Insect): 2 | Adult emergence: Non emergence ([3]; 75 μg/Insect): 24 | Adult emergence: Normal adults ([3]; 75 μg/Insect): 0 | Larval mortality (%) ([3]; 75 μg/Insect): 49% | Pupal Formation: Abnormal pupa ([3]; 75 μg/Insect): 27 | Pupal Formation: Normal pupa ([3]; 75 μg/Insect): 0 | Pupal Formation: Pupal Mortality ([3]; 75 μg/Insect): 24 | Adult emergence: Abnormal adults ([3]; 100 μg/Insect): 0 | Adult emergence: Intermediates ([3]; 100 μg/Insect): 2 | Adult emergence: Non emergence ([3]; 100 μg/Insect): 20 | Adult emergence: Normal adults ([3]; 100 μg/Insect): 0 | Larval mortality (%) ([3]; 100 μg/Insect): 61% | Pupal Formation: Abnormal pupa ([3]; 100 μg/Insect): 22 | Pupal Formation: Normal pupa ([3]; 100 μg/Insect): 0 | Pupal Formation: Pupal Mortality ([3]; 100 μg/Insect): 17 | Adult emergence: Abnormal adults ([4]; 5 μg/Insect): 26 | Adult emergence: Intermediates ([4]; 5 μg/Insect): 28 | Adult emergence: Non-emergence ([4]; 5 μg/Insect): 0 | Adult emergence: Normal adults ([4]; 5 μg/Insect): 41 | Larval mortality (%) ([4]; 5 μg/Insect): 0% | Pupal Formation: Abnormal pupa ([4]; 5 μg/Insect): 41 | Pupal Formation: Normal pupa ([4]; 5 μg/Insect): 59 | Pupal Formation: Pupal Mortality ([4]; 5 μg/Insect): 5 | Adult emergence: Abnormal adults ([4]; 10 μg/Insect): 22 | Adult emergence: Intermediates ([4]; 10 μg/Insect): 34 | Adult emergence: Non-emergence ([4]; 10 μg/Insect): 1 | Adult emergence: Normal adults ([4]; 10 μg/Insect): 36 | Larval mortality (%) ([4]; 10 μg/Insect): 0% | Pupal Formation: Abnormal pupa ([4]; 10 μg/Insect): 48 | Pupal Formation: Normal pupa ([4]; 10 μg/Insect): 52 | Pupal Formation: Pupal Mortality ([4]; 10 μg/Insect): 8 | Adult emergence: Abnormal adults ([4]; 20 μg/Insect): 27 | Adult emergence: Intermediates ([4]; 20 μg/Insect): 32 | Adult emergence: Non-emergence ([4]; 20 μg/Insect): 2 | Adult emergence: Normal adults ([4]; 20 μg/Insect): 24 | Larval mortality (%) ([4]; 20 μg/Insect): 0% | Pupal Formation: Abnormal pupa ([4]; 20 μg/Insect): 53 | Pupal Formation: Normal pupa ([4]; 20 μg/Insect): 47 | Pupal Formation: Pupal Mortality ([4]; 20 μg/Insect): 17 | Adult emergence: Abnormal adults ([4]; 35 μg/Insect): 23 | Adult emergence: Intermediates ([4]; 35 μg/Insect): 23 | Adult emergence: Non-emergence ([4]; 35 μg/Insect): 25 | Adult emergence: Normal adults ([4]; 35 μg/Insect): 7 | Larval mortality (%) ([4]; 35 μg/Insect): 21% | Pupal Formation: Abnormal pupa ([4]; 35 μg/Insect): 54 | Pupal Formation: Normal pupa ([4]; 35 μg/Insect): 25 | Pupal Formation: Pupal Mortality ([4]; 35 μg/Insect): 26 | Adult emergence: Abnormal adults ([4]; 50 μg/Insect): 6 | Adult emergence: Intermediates ([4]; 50 μg/Insect): 8 | Adult emergence: Non-emergence ([4]; 50 μg/Insect): 9 | Adult emergence: Normal adults ([4]; 50 μg/Insect): 5 | Larval mortality (%) ([4]; 50 μg/Insect): 57% | Pupal Formation: Abnormal pupa ([4]; 50 μg/Insect): 38 | Pupal Formation: Normal pupa ([4]; 50 μg/Insect): 5 | Pupal Formation: Pupal Mortality ([4]; 50 μg/Insect): 24 | Adult emergence: Abnormal adults ([4]; 75 μg/Insect): 1 | Adult emergence: Intermediates ([4]; 75 μg/Insect): 2 | Adult emergence: Non-emergence ([4]; 75 μg/Insect): 25 | Adult emergence: Normal adults ([4]; 75 μg/Insect): 0 | Larval mortality (%) ([4]; 75 μg/Insect): 72% | Pupal Formation: Abnormal pupa ([4]; 75 μg/Insect): 28 | Pupal Formation: Normal pupa ([4]; 75 μg/Insect): 0 | Pupal Formation: Pupal Mortality ([4]; 75 μg/Insect): 25 | Adult emergence: Abnormal adults ([4]; 100 μg/Insect): 0 | Adult emergence: Intermediates ([4]; 100 μg/Insect): 0 | Adult emergence: Non-emergence ([4]; 100 μg/Insect): 14 | Adult emergence: Normal adults ([4]; 100 μg/Insect): 0 | Larval mortality (%) ([4]; 100 μg/Insect): 86% | Pupal Formation: Abnormal pupa ([4]; 100 μg/Insect): 14 | Pupal Formation: Normal pupa ([4]; 100 μg/Insect): 0 | Pupal Formation: Pupal Mortality ([4]; 100 μg/Insect): 14

S=C(OCC1CCCO1)SCSC(=S)OCC1CCCO1 (stereo not shown) [methylene Bis (tetrahydrofurfuryl xanthate)]
LC50 ± S.E. [1]: 3.77 ± 0.59 µg/mL (≈ 10.2 µM) | A.I. (Anti-feedent Index) ([2]; 12.5 μg/sq. cm.): 8.20 | Percent leaf consumption 12 hr ([2]; 12.5 μg/sq. cm.): 48.6% | Percent leaf consumption 24 hr ([2]; 12.5 μg/sq. cm.): 80.6% | A.I. (Anti-feedent Index) ([2]; 25 μg/sq. cm.): 22.42 | Percent leaf consumption 12 hr ([2]; 25 μg/sq. cm.): 31.5% | Percent leaf consumption 24 hr ([2]; 25 μg/sq. cm.): 60.2% | A.I. (Anti-feedent Index) ([2]; 35 μg/sq. cm.): 33.52 | Percent leaf consumption 12 hr ([2]; 35 μg/sq. cm.): 25.9% | Percent leaf consumption 24 hr ([2]; 35 μg/sq. cm.): 47.3% | A.I. (Anti-feedent Index) ([2]; 50 μg/sq. cm.): 35.23 | Percent leaf consumption 12 hr ([2]; 50 μg/sq. cm.): 22.1% | Percent leaf consumption 24 hr ([2]; 50 μg/sq. cm.): 45.5% | Concentration required for 50% leaf protection EC50 ± S.E. [2]: 37.21 ± 9.67 μg/cm^2 | Adult emergence: Abnormal adults ([4]; 5 μg/Insect): 22 | Adult emergence: Intermediates ([4]; 5 μg/Insect): 0 | Adult emergence: Non-emergence ([4]; 5 μg/Insect): 3 | Adult emergence: Normal adults ([4]; 5 μg/Insect): 37 | Larval mortality (%) ([4]; 5 μg/Insect): 36% | Pupal Formation: Abnormal pupa ([4]; 5 μg/Insect): 6 | Pupal Formation: Normal pupa ([4]; 5 μg/Insect): 58 | Pupal Formation: Pupal Mortality ([4]; 5 μg/Insect): 5 | Adult emergence: Abnormal adults ([4]; 10 μg/Insect): 19 | Adult emergence: Intermediates ([4]; 10 μg/Insect): 1 | Adult emergence: Non-emergence ([4]; 10 μg/Insect): 2 | Adult emergence: Normal adults ([4]; 10 μg/Insect): 28 | Larval mortality (%) ([4]; 10 μg/Insect): 46% | Pupal Formation: Abnormal pupa ([4]; 10 μg/Insect): 10 | Pupal Formation: Normal pupa ([4]; 10 μg/Insect): 44 | Pupal Formation: Pupal Mortality ([4]; 10 μg/Insect): 6 | Adult emergence: Abnormal adults ([4]; 20 μg/Insect): 17 | Adult emergence: Intermediates ([4]; 20 μg/Insect): 21 | Adult emergence: Non-emergence ([4]; 20 μg/Insect): 2 | Adult emergence: Normal adults ([4]; 20 μg/Insect): 15 | Larval mortality (%) ([4]; 20 μg/Insect): 59% | Pupal Formation: Abnormal pupa ([4]; 20 μg/Insect): 16 | Pupal Formation: Normal pupa ([4]; 20 μg/Insect): 25 | Pupal Formation: Pupal Mortality ([4]; 20 μg/Insect): 7 | Adult emergence: Abnormal adults ([4]; 35 μg/Insect): 11 | Adult emergence: Intermediates ([4]; 35 μg/Insect): 2 | Adult emergence: Non-emergence ([4]; 35 μg/Insect): 3 | Adult emergence: Normal adults ([4]; 35 μg/Insect): 9 | Larval mortality (%) ([4]; 35 μg/Insect): 71% | Pupal Formation: Abnormal pupa ([4]; 35 μg/Insect): 10 | Pupal Formation: Normal pupa ([4]; 35 μg/Insect): 19 | Pupal Formation: Pupal Mortality ([4]; 35 μg/Insect): 7 | Adult emergence: Abnormal adults ([4]; 50 μg/Insect): 9 | Adult emergence: Intermediates ([4]; 50 μg/Insect): 3 | Adult emergence: Non-emergence ([4]; 50 μg/Insect): 1 | Adult emergence: Normal adults ([4]; 50 μg/Insect): 4 | Larval mortality (%) ([4]; 50 μg/Insect): 80% | Pupal Formation: Abnormal pupa ([4]; 50 μg/Insect): 13 | Pupal Formation: Normal pupa ([4]; 50 μg/Insect): 7 | Pupal Formation: Pupal Mortality ([4]; 50 μg/Insect): 4 | Adult emergence: Abnormal adults ([4]; 75 μg/Insect): 2 | Adult emergence: Intermediates ([4]; 75 μg/Insect): 0 | Adult emergence: Non-emergence ([4]; 75 μg/Insect): 2 | Adult emergence: Normal adults ([4]; 75 μg/Insect): 2 | Larval mortality (%) ([4]; 75 μg/Insect): 91% | Pupal Formation: Abnormal pupa ([4]; 75 μg/Insect): 7 | Pupal Formation: Normal pupa ([4]; 75 μg/Insect): 2 | Pupal Formation: Pupal Mortality ([4]; 75 μg/Insect): 5 | Adult emergence: Abnormal adults ([4]; 100 μg/Insect): 1 | Adult emergence: Intermediates ([4]; 100 μg/Insect): 0 | Adult emergence: Non-emergence ([4]; 100 μg/Insect): 0 | Adult emergence: Normal adults ([4]; 100 μg/Insect): 0 | Larval mortality (%) ([4]; 100 μg/Insect): 98% | Pupal Formation: Abnormal pupa ([4]; 100 μg/Insect): 2 | Pupal Formation: Normal pupa ([4]; 100 μg/Insect): 0 | Pupal Formation: Pupal Mortality ([4]; 100 μg/Insect): 1 | LC50 ± S.E. [5]: 5.63 ± 0.62 µg/mL (≈ 15.3 µM)
